According to patent US9567384B2, “Phosphorylation on the Thr-248 and/or Thr-250 residues of transcription factor E2F4 as a therapeutic target in pathological processes associated with somatic polyploidy” (CONSEJO SUPERIOR DE INVESTIGACIONES CIENTIFICAS (CSIC), priority 2011, dated 2017):

How the values were obtained:
E2F4 = assay: Western blot with anti-phosphoThr antibodies in extracts immunoprecipitated with anti-E2F4 antibodies; type: cell-based, chick; conditions: 100 ng/ml NGF
[1] = test system: chick embryo retinal cell neurogenic cultures E6; assay: Incorporation of BrdU (entry into S phase) in chick embryo retinal cell neurogenic cultures E6; type: cell-based
Description: (§1) These cells respond to NGF by inducing cell cycle reactivation that leads to somatic tetraploidy (endoreduplication) (Morillo et al., 2010). A. Western blot with anti-active p38^MAPK (P-p38^MAPK) and anti-p38^MAPK in nuclear extracts of the mentioned neurogenic cultures treated for the indicated time with 100 ng/ml NGF. The normalized ratios between P-p38^MAPK and p38^MAPK levels are indicated at the bottom. B. Immunohistochemical staining with anti-active p38^MAPK antibodies (P-p38^MAPK) in the mentioned neurogenic cultures treated with 100 ng/ml NGF for 20 minutes. The nuclei were labeled with bisbenzimide (Bisb.). […] C. Luciferase assay in extracts of chick embryo retinal cell neurogenic cultures E6 transfected with a plasmid expressing luciferase under the control of cMyc gene promoter, known for its response to E2F during G1/S transition, and another plasmid with the constitutive expression of β-galactosidase. The luciferase/β-galactosidase ratio values are depicted as “luciferase activity”. […] This effect is blocked with selective p38^MAPK inhibitor SB203580 (used at 5 μM). D. Incorporation of BrdU to indicate entry into S phase in chick embryo retinal cell neurogenic cultures E6.
A. Luciferase activity analyzed as described in FIG. 2C. […] Based on the results shown in panels A and B, it is deduced that p38^MAPK acts exclusively through Thr261/Thr263 residues. C. Luciferase activity analyzed as described in FIG. 2C.

cMyc gene promoter = assay: Luciferase assay, cMyc gene promoter reporter in chick embryo retinal cell neurogenic cultures E6; type: cell-based
Description: as §1

p38^MAPK = assay: Immunohistochemical staining with anti-active p38MAPK antibodies in neurogenic cultures; type: cell-based, chick; conditions: 100 ng/ml NGF for 20 minutes
Description: as §1

[2] = expression of E2F4-ND, 100 ng/ml NGF

## C[S+]([O-])c1ccc(-c2nc(-c3ccncc3)c(-c3ccc(F)cc3)[nH]2)cc1 (stereo not drawn) [SB203580, reference compound]
E2F4; SB203580 used at 5 μM
  effect on NGF-promoted phosphorylation on threonine residues of E2F4: inhibits such phosphorylation
[1]; 100 ng/ml NGF, inhibitor used at 5 μM
  effect on NGF-induced increase in the proportion of cells in S phase (BrdU): blocked
cMyc gene promoter; 100 ng/ml NGF, SB203580 used at 5 μM
  effect on NGF-induced cMyc promoter activation (luciferase activity): blocked

## E2F4-CA: constitutively active form of chicken E2F4 characterized by Thr261Glu/Thr263Glu substitutions
[1]; cells transfected with E2F4-CA
  incorporation of BrdU: increases significantly
[1]; cells transfected with E2F4-CA in the presence of SB203580 5 μM
  incorporation of BrdU: can be observed even in the presence
[1]; summary of FIG. 4A, FIG. 4B (luciferase and BrdU)
  mimicking the effect of NGF on retinal neurons (cell cycle reactivation): capable of mimicking the effect of NGF
cMyc gene promoter; expression of E2F4-CA in the presence of SB203580 5 μM
  cMyc promoter activity (luciferase activity): can be observed even in the presence
cMyc gene promoter; expression of E2F4-CA, transfected cells
  cMyc promoter activity (luciferase activity): induces cMyc promoter activity

## E2F4-ND: negative dominant form of chicken E2F4 characterized by Thr261Ala/Thr263Ala substitutions, preventing phosphorylation by p38MAPK
[1]; [2]
  effect of NGF on the incorporation of BrdU: prevents the effect
[1]; summary of FIG. 4C, FIG. 4D (luciferase and BrdU)
  effect of NGF on the cell cycle in neurogenic retinal cultures: capable of inhibiting the effect of NGF
cMyc gene promoter; [2]
  effect of NGF on cMyc promoter activity (luciferase activity): prevents the effect

## nerve growth factor [NGF]
E2F4
  phosphorylation on threonine residues of E2F4: increase in phosphorylation on threonine residues
p38^MAPK
  active p38MAPK (P-p38MAPK) signal in the nucleus: signal increase
[1]; 100 ng/ml NGF
  incorporation of BrdU, proportion of cells in S phase: an increase in the proportion of cells in S phase
cMyc gene promoter; 100 ng/ml NGF
  luciferase activity (luciferase/β-galactosidase ratio), cMyc promoter: entails cMyc promoter activation
